The values below come from patent publication US20240018121A1, “NOVEL HETEROAROMATIC COMPOUNDS EXHIBITING ANTIFUNGAL ACTIVITY AND THEIR METHOD OF USE” (FOX CHASE CHEMCIAL DIVERSITY CENTER, INC., priority 2020, published 2024).

Converted amounts (≈) assume the structure as drawn. Structures can show the parent of a compound that is named as a salt. Where two headings read alike, the source gives them in different places.

Assay type in all cases: cell-based
The subject of assay [1] is Aspergillus flavus AFL1 (ATCC MYA-3631). In words: Fungal MIC Protocol, Aspergillus flavus. To be noted: Aspergillus flavus, read-out: MIC Aspergillus flavus 3631. On the procedure:
(§1) Fungal MIC Protocol: RPMI/MOPS media (Roswell Park Memorial Institute/3-morpholinopropane-1-sulfonic acid media) is prepared by dissolving 8.4 grams RPMI […] (Sigma cat #R1383), 34.52 grams MOPS buffer (Sigma cat #M3.183) and 2 […] glucose in 900 mL deionized water. The pH is adjusted to 7.0 with NaOH and filter sterilized. 0.1 mL, of a stock spore suspension (or loop from frozen stock) is inoculated to a 75 mL tissue culture flask (Falcon cat #353136) containing 50 mL of Potato Dextrose Agar (PDA, 24 grams PD broth (Fisher cat #DF 0549179), 20 grams agar (Fisher cat #BP 1423500) per liter water). Aspergillus and Fusarium strains are grown at 35° C. and Mucor strains are grown at room temperature for 3-5 days. Spores are harvested by flooding the flask with 5 mL phosphate buffered saline (PBS) pH 7.4+0.1% Tween-20 and several glass beads (Fisher cat #S800243) are added to aid in agitation. The supernatant is removed and the OD530 of a 1:100 dilution is measured. Spores are diluted in RPMI/MOPS to a final OD530 of 0.002 for Aspergillus and an OD530 of 0.005 for Fusarium and Mucor. The final concentration of spores is approximately 2×10^4 cfu/mL. Test compound(s) are diluted to 200 ug/mL in RPMI/MOPS ([…]). Ten (10) serial dilutions are prepared with RPMI/MOPS in a 96-well round bottom plate (Fisher cat #353136). For Mucor strains a sterile flat-bottom 96-well plate is used. 50 μl of compound dilutions in duplicate are added to a sterile 96-well round bottom plate. 50 ul of diluted spores are added to the compound-containing plates. Control wells include 1) compound but no cells and 2) spores but no compound. Mix the plates gently by hand, place in ziplock bags and
(§2) incubate at 35° C. for 48 hours. […]

Assay [2] has as its system Fusarium solani (ATCC 58877). The assay is described as follows: Fungal MIC Protocol, Fusarium solani. To be noted: Fusarium solani, read-out: MIC Fusarium solani 58877. On the procedure: as §1, §2
Assay [3] relates to Fusarium falciforme FS1 (ATCC MYA-3636). In words: Fungal MIC Protocol, Fusarium falciforme. The settings on record: Fusarium falciforme, read-out: MIC Fusarium falciforme 3636. On the procedure:
as §1, §2

The test system of assay [4] is Mucor circinelloides 1463(62) (ATCC 26759). In words: Fungal MIC Protocol, Mucor circinelloides (MIC-50). The settings on record: Mucor circinelloides, read-out: MIC-50 Mucorales circinelloides 26579. The protocol:
as §1
(§3) incubate at 35° C. for 48 hours. Score the MIC visually (lowest concentration of compound showing >50% growth inhibition) using an inverted mirror.

In assay [5] the test system is Aspergillus fumigatus T33439 (ATCC MYA-3626). The assay is described as follows: Fungal MIC Protocol, Aspergillus fumigatus. To be noted: Aspergillus fumigatus, read-out: MIC Aspergillus fumigatus 3626. The protocol: as §1, §2
For assay [6], the system named is Mucor ramosissimus 057718 (ATCC 90286). The assay is described as follows: Fungal MIC Protocol, Mucor ramosissimus (MIC-50). To be noted: Mucor ramosissimus, read-out: MIC-50 Mucorales ramosissimus 90286. The protocol:
as §1, §3

[7] abbreviates: 100% growth inhibition at 48 hours.
Setting [8] is: ATCC58877, 100% growth inhibition at 48 hours.
Setting [9] is: ATCC26759, 50% growth inhibition at 48 hours.
Where [10] appears, read: ATCC90286, 50% growth inhibition at 48 hours.

As to `N=C(N)N1CC=C(c2ccc(-c3nnc(-c4ccc(C5=CCN(C(=N)N)CC5)cc4F)n3Cc3ccccc3)c(F)c2)CC1` [Example 18], the MIC (commonly the lowest concentration found to suppress growth) was 0.78 µg/mL (≈ 1.31 µM) in assay [1] (setting [7]), 0.39 µg/mL (≈ 0.657 µM) in assay [2] (setting [8]), less than 0.1 µg/mL in assay [3] (setting [7]) and 0.39 µg/mL (≈ 0.657 µM) in assay [5] (setting [7]). Also, the MIC50 in assay [4] (setting [9]) and in assay [6] (setting [10]) was 0.78 µg/mL (≈ 1.31 µM) in each case.

For the molecule `COc1cc(C2=CCN(C(=N)N)CC2)ccc1-c1nnc(-c2ccc(C3=CCN(C(=N)N)CC3)cc2OC)n1CCO` [Example 75, 4-(4-{5-[4-(1-carbamimidoyl-1,2,3,6-tetrahydropyridin-4-yl)-2-methoxyphenyl]-4-(2-hydroxyethyl)-4H-1,2,4-triazol-3-yl}-3-methoxyphenyl)-1,2,3,6-tetrahydropyridine-1-carboximidamide trifluoroacetate], the MIC is 3.13 µg/mL in assay [1] (48 h); 0.39 µg/mL in assay [2] (ATCC58877, 48 h); 1.56 µg/mL in assay [3] (48 h); 1.56 µg/mL in assay [5] (48 h). For the same molecule, the MIC50 in assay [4] (ATCC26759, 48 h) is 25 µg/mL; in assay [6] (ATCC90286, 48 h) it was 25 µg/mL.

For `N=C(N)N1CC=C(c2ccc(-c3nnc(-c4ccc(C5=CCN(C(=N)N)CC5)cc4)n3Cc3ccccc3)cc2)CC1` [Example 5, 4,4′-(4,4′-(4-Benzyl-4H-1,2,4-triazole-3,5-diyl)bis(4,1-phenylene))bis(5,6-dihydropyridine-1(2H)-carboximidamide)], the MIC is 1.56 µg/mL (≈ 2.8 µM) in assay [1] (setting [7]), 0.39 µg/mL (≈ 0.699 µM) in assay [2] (setting [8]), less than 0.1 µg/mL in assay [3] (setting [7]) and 0.39 µg/mL (≈ 0.699 µM) in assay [5] (setting [7]). The MIC50 worked out at 1.56 µg/mL (≈ 2.8 µM) in assay [4] (setting [9]) and 6.25 µg/mL (≈ 11.2 µM) in assay [6] (setting [10]).

Consider `Cn1c(-c2ccc(C3=CCN(C(=N)N)C3)cc2F)nnc1-c1ccc(C2=CCN(C(=N)N)C2)cc1F` [Example 28, 3,3′-(4,4′-(4-Methyl-4H-1,2,4-triazole-3,5-diyl)bis(3-fluoro-4,1-phenylene)) bis(2,5-dihydro-1H-pyrrole-1-carboximidamide)], for which the minimal inhibitory concentration (MIC) in assay [1] (setting [7]), in assay [2] (setting [8]), in assay [3] (setting [7]) and in assay [5] (setting [7]) was less than 0.1 µg/mL in each case. For the same molecule, the MIC50 in assay [4] (setting [9]) and in assay [6] (setting [10]) was more than 100 µg/mL in each case.

As to `N=C(N)N1CC=C(c2ccc(-c3nnc(-c4ccc(C5=CCN(C(=N)N)CC5)cc4)n3C3CC3)cc2)CC1` [Example 4, 4,4′-(4,4′-(4-Cyclopropyl-4H-1,2,4-triazole-3,5-diyl)bis(4,1-phenylene)) bis(5,6-dihydropyridine-1(2H)-carboximidamide)], the MIC in assay [1] (setting [7]) is 0.39 µg/mL (≈ 0.768 µM); in assay [2] (setting [8]) it was 0.2 µg/mL (≈ 0.394 µM); in assay [3] (setting [7]) it was less than 0.1 µg/mL; in assay [5] (setting [7]), less than 0.1 µg/mL. Further, the MIC50 in assay [4] (setting [9]) was 0.39 µg/mL (≈ 0.768 µM); in assay [6] (setting [10]), 1.56 µg/mL (≈ 3.07 µM).

Turning to `Cn1c(-c2ccc(C3=CCC(NC(=N)N)CC3)cc2F)nnc1-c1ccc(C2=CCC(NC(=N)N)CC2)cc1F` (stereo not shown) [Example 40, 1-[4-(4-{5-[4-(4-Carbamimidamidocyclohex-1-en-1-yl)-2-fluorophenyl]-4-methyl-4H-1,2,4-triazol-3-yl}-3-fluorophenyl)cyclohex-3-en-1-yl]guanidine], the MIC in assay [1] (setting [7]) came out at 6.25 µg/mL (≈ 11.5 µM); in assay [2] (setting [8]), 1.56 µg/mL (≈ 2.86 µM); in assay [3] (setting [7]), 1.56 µg/mL (≈ 2.86 µM); in assay [5] (setting [7]), 6.25 µg/mL (≈ 11.5 µM). The figures for the MIC50 in assay [4] (setting [9]) and in assay [6] (setting [10]) were 6.25 µg/mL (≈ 11.5 µM) and 50 µg/mL (≈ 91.6 µM), respectively.

With `CC(C)Nc1cc(C2=CCN(C(=N)N)CC2)ccc1-c1nnc(-c2ccc(C3=CCN(C(=N)N)CC3)cc2F)n1C(C)C` [Example 26, 4-(4-(5-(4-(1-Carbamimidoyl-1,2,3,6-tetrahydropyridin-4-yl)-2-(isopropylamino)phenyl)-4-isopropyl-4H-1,2,4-triazol-3-yl)-3-fluorophenyl)-5,6-dihydro pyridine-1(2H)-carboximidamide], the MIC is 12.5 µg/mL (≈ 21.4 µM) in assay [1] (setting [7]) and 100 µg/mL (≈ 171 µM) in assay [5] (setting [7]). Further, the MIC50 in assay [4] (setting [9]) came to 12.5 µg/mL (≈ 21.4 µM); in assay [6] (setting [10]) it was 100 µg/mL (≈ 171 µM).

In the case of `CC(C)(O)Cn1c(-c2ccc(C3=CCN(C(=N)N)CC3)cc2F)nnc1-c1ccc(C2=CCN(C(=N)N)CC2)cc1F` [Example 74, 4-(4-{5-[4-(1-carbamimidoyl-1,2,3,6-tetrahydropyridin-4-yl)-2-fluorophenyl]-4-(2-hydroxy-2-methylpropyl)-4H-1,2,4-triazol-3-yl}-3-fluorophenyl)-1,2,3,6-tetrahydropyridine-1-carboximidamide hydrochloride], the MIC in assay [1] (48 h) is 0.78 µg/mL; in assay [2] (ATCC58877, 48 h), 0.1 µg/mL; in assay [3] (48 h), 0.1 µg/mL; in assay [5] (48 h), 0.39 µg/mL. Besides, the MIC50 is 1.56 µg/mL in assay [4] (ATCC26759, 48 h) and 3.13 µg/mL in assay [6] (ATCC90286, 48 h).

Consider `N=C(N)N1CC=C(c2ccc(-c3nnc(-c4ccc(C5=CCN(C(=N)N)CC5)c(C(F)(F)F)c4)n3CCO)cc2C(F)(F)F)CC1` [Example 80, 4-(4-{5-[4-(1-carbamimidoyl-1,2,3,6-tetrahydropyridin-4-yl)-3-(trifluoromethyl)phenyl]-4-(2-hydroxyethyl)-4H-1,2,4-triazol-3-yl}-2-(trifluoromethyl)phenyl)-1,2,3,6-tetrahydropyridine-1-carboximidamide hydrochloride], for which the MIC in assay [1] (48 h) is 25 µg/mL; in assay [2] (ATCC58877, 48 h) it was 25 µg/mL; in assay [3] (48 h), 25 µg/mL; in assay [5] (48 h), 25 µg/mL. Also, the MIC50 in assay [4] (ATCC26759, 48 h) was found to be 25 µg/mL; in assay [6] (ATCC90286, 48 h), 25 µg/mL.

As for `COc1cc(-c2nnc(-c3ccc(C4=CCN(C(=N)N)CC4)c(OC)c3)n2CCO)ccc1C1=CCN(C(=N)N)CC1` [Example 76, 4-(4-{5-[4-(1-carbamimidoyl-1,2,3,6-tetrahydropyridin-4-yl)-3-methoxyphenyl]-4-(2-hydroxyethyl)-4H-1,2,4-triazol-3-yl}-2-methoxyphenyl)-1,2,3,6-tetrahydropyridine-1-carboximidamide trifluoroacetate], the minimum inhibitory concentration (MIC) in assay [1] (48 h) was 3.13 µg/mL; in assay [2] (ATCC58877, 48 h) it was 0.39 µg/mL; in assay [3] (48 h), 0.78 µg/mL; in assay [5] (48 h) it was 0.78 µg/mL. The MIC50 in assay [4] (ATCC26759, 48 h) was determined as 25 µg/mL; in assay [6] (ATCC90286, 48 h) it was 25 µg/mL.

For `CC(CO)n1c(-c2ccc(C3=CCN(C(=N)N)CC3)cc2F)nnc1-c1ccc(C2=CCN(C(=N)N)CC2)cc1F` (stereo not shown) [Example 83, 4-(4-{5-[4-(1-carbamimidoyl-1,2,3,6-tetrahydropyridin-4-yl)-2-fluorophenyl]-4-(1-hydroxypropan-2-yl)-4H-1,2,4-triazol-3-yl}-3-fluorophenyl)-1,2,3,6-tetrahydropyridine-1-carboximidamide hydrochloride], the MIC in assay [1] (48 h) was found to be 0.78 µg/mL; in assay [2] (ATCC58877, 48 h) it was 0.2 µg/mL; in assay [3] (48 h), 0.2 µg/mL; in assay [5] (48 h), 0.39 µg/mL. The MIC50 worked out at 1.56 µg/mL in assay [4] (ATCC26759, 48 h) and 12.5 µg/mL in assay [6] (ATCC90286, 48 h).

Regarding `CN(C)CCn1c(-c2ccc(C3=CCN(C(=N)N)CC3)cc2F)nnc1-c1ccc(C2=CCN(C(=N)N)CC2)cc1F.Cl` [Example 72, 4-(4-{5-[4-(1-carbamimidoyl-1,2,3,6-tetrahydropyridin-4-yl)-2-fluorophenyl]-4-[2-(dimethylamino)ethyl]-4H-1,2,4-triazol-3-yl}-3-fluorophenyl)-1,2,3,6-tetrahydropyridine-1-carboximidamide hydrochloride], the MIC in assay [1] (setting [7]) is 0.78 µg/mL; in assay [2] (setting [8]) it was 0.1 µg/mL; in assay [3] (setting [7]) it was 0.2 µg/mL; in assay [5] (setting [7]), 0.39 µg/mL. Besides, the MIC50 is 6.25 µg/mL in assay [4] (setting [9]) and 12.5 µg/mL in assay [6] (setting [10]).
